Entries after “also recorded” stand apart in the source; their conditions may differ. Where a SMILES comes first, the peptide text is derived from it. [ ]: non-standard residue; d: D form. Bpa = N[C@@H](Cc1ccc(C(=O)c2ccccc2)cc1)C(=O)O; Phe(4-NH2) = Nc1ccc(C[C@H](N)C(=O)O)cc1; hArg = N=C(N)NCCCC[C@H](N)C(=O)O
What was measured:
[1] = stability / degradation in human blood; type: in vitro ADME
Experimental: (§1) Test compounds were spiked at 10 μg/ml into either PBS or blood (Male Wistar rat or Human) diluted with PBS, and a series of samples taken according to the following scheme:
(§2) Procaine, a compound known to be unstable in blood, was included as a positive control (ran with 5-fold diluted blood only). The sampling procedure was to add an aliquot to ice-cold acetonitrile, centrifuge, and store the supernatant on dry ice until analysis. Analysis by UHPLC-TOF mass spectrometry using electrospray ionisation was performed on the same day as the incubations were performed.

PC12 cells [2] = test: Calcium fluorometry (Fluo-8, PNU282987-induced calcium increase) in PC12 cells; type: cell-based; conditions: in conjunction with T30, PC12 cells
Experimental: PC12 cells were plated in 200 μl of Dulbecco's Modified Eagle's medium (DMEM) plus 2 mM of L-glutamine medium the day before the experiment in 96 well plates. On the day of the experiment, the Fluo-8 solution (Abcam) was prepared as described by the provider by adding 20 μl of Fluo-8 in the assay buffer that contains 9 ml of Hank's Balanced Salt Solution (HBSS) and 1 ml of pluronic F127 Plus. Subsequently, 100 μl of growth medium was removed and 100 μl of Fluo-8 solution were added. Treatments with T30 in conjunction with NBP14 or Tri peptides were added and incubated for 30 minutes in the incubator and 30 minutes room temperature. After 1 h, the plate was placed in the fluorescence plate reader (Fluostar, Optima, BMG Labtech, Ortenberg, Germany). Before reading the fluorescence, PNU282987 1 μM, an alpha7 specific agonist of the nicotinic receptors, was prepared and placed in the Fluostar injector. For each well, the reading was formed by a basal fluorescence reading followed by PNU282987 injection that induced an increase of calcium via nicotinic receptors.
In each of the different cell techniques, the statistics analysis was performed with the average of the percentage values of 3 or more experiments. Comparisons between multiple treatment groups and the same control were performed by one-way analysis of variance (ANOVA) and Tukey's post-hoc tests using GraphPAD Instat (GraphPAD software, San Diego, California). Statistical significance was taken at a p value<0.05.

[3] = system: rat basal forebrain slices; test: voltage-sensitive dye imaging (VSDI) on brain slices, Example 5; type: cell-based
Experimental: Male Wistar rats (14 days old) were anaesthetised using isoflurane (˜15 ml, 100% w/w). Isoflurane was applied to the cotton bed at the bottom of an anaesthetic chamber (glass box 20×15×15 cm) where rats were then placed for approximately 45 s until complete anaesthesia was reached. The hind paw of each anaesthetised rat was pinched to check for the appropriate depth of anaesthesia. Upon confirmation of anaesthesia, rats were quickly decapitated, with the brain being quickly removed and immersed in ice cold oxygenated ‘slicing’ artificial cerebrospinal fluid (aCSF in mmol: 120 NaCl, 5 KCL, 20 NaHCO3, 2.4 CaCl2 2 MgSO4, 1.2 KH2PO4, 10 glucose, 6.7 HEPES salt and 3.3 HEPES acid; pH=7.1). Coronal slices (400 μm thick) were then taken from a block of brain containing the basal forebrain, namely the MS-dBB complex (between +9.20 and +9.48 mm Interaural and +0.48 and +0.2 mm Bregma, FIG. 4A) and the somatosensory barrel field cortex (SiBF, between +8.08 and +7.20 mm Interaural and −0.92 mm and −1.80 mm Bregma) (Paxinos and Watson, 1998) using a Vibratome (Leica VTi000S).
Slices were then transferred to a bubbler pot containing oxygenated aCSF at room temperature (recording aCSF in mmol: 124 NaCl, 5 KCL, 20 NaHCO3, 2.4 CaCl2 2 MgSO4, 1.3 KH2PO4, 10 glucose; pH=7.4) which was identical to that used in VSDI (voltage sensitive dye imaging) recording. Slices were then left for approximately 1-1.5 hours before preparing them for VSD staining.
Slices were placed in a dark, high humidity chamber filled with aCSF bubbled with 95% O2, 5% CO2. Once there, the dye solution (4% 0.2 mM styryl dye pyridinium 4-[2-[6-(dibutylamino)-2-napthalenyl]-ethenyl]-1-(3-sulfopropyl)hydroxide (Di-4-NEPPS), Invitrogen, Paisley, UK in 48% aCSF, 48% foetal bovine serum, 3.5% DMSO and 0.4% cremophore EL) (Tominaga et al., 2000) was applied to the slices for 20-25 minutes before being transferred back to a bubbler pot containing oxygenated aCSF kept at room temperature for 30 minutes.
When starting the VSDI recordings, slices were placed in the recording bath on a small piece of filter paper to allow the flow of oxygenated aCSF on the underside of the slice and in order to keep it alive. The slice was then weighed down by a home-made plastic grid that was placed on top of the slice. […] For the acquisition of VSD data, 2 dimensional images, equivalent to 88×60 pixels, were recorded using the MiCamo2 High Resolution camera (Brain Vision, Japan) with BV_Analyze imaging software. […] Light was generated using an Osram halogen xenophot 64634 HLX EFR Display/Optic lamp and was filtered to emit green (530±10 nm) light using a MHF-G150LR (Moritex Corporation) coupled to the MiCamo2 High resolution imaging system and filtered the emitted fluorescence through a >590 nm high pass filter. […]

PC12 cells [4] = test: AChE activity assay (Ellman reagent) in PC12 cells treated with T30; type: cell-based; conditions: combined with T30 (1 μM)
Experimental: AChE activity was measured using the Ellman reagent that measures the presence of thiol groups as a result of AChE activity. In the case of the G4 experiment, AChE (G4) activity was tested alone and also together with either NBP14 or Tri peptides. PC12 cells were plated the day before the experiment as for the cell viability assay. Cells were treated with T30 (1 μM) alone or combined with NBP14 or Tri peptide (0.5 μM). After treatment, supernatant (perfusate) of each treatment was collected and 25 μL from each condition were added to a new flat bottomed 96 well plate followed by the addition of 175 μl of Ellman reagent (Solution A: KH2PO4 139 mM and K2HPO4 79.66 mM, pH 7.0; solution B (substrate): Acetylthiocholine Iodide 11.5 mM; Solution C (Reagent): 5,5′-dithiobis(2-nitrobenzoic acid) 8 mM and NaHCO3 15 mM). The Ellman reagent was prepared as a mixture of the 3 solutions in a ratio 33(A):3(B):4(C). Absorbance measurements were taken for an interval of 60 minutes across experiments at 405 nm in a Vmax plate reader (Molecular devices, Wokingham, UK).
In each of the different cell techniques, the statistics analysis was performed with the average of the percentage values of 3 or more experiments. […]

[5] = stability / degradation in rat blood; type: in vitro ADME; conditions: for stability in blood / degradants detected: rat blood diluted with PBS; for degradants detected: UHPLC-TOF MS
Experimental: as §1, §2

[6] = system: rat basal forebrain slices; test: voltage-sensitive dye imaging (VSDI) on brain slices, Example 7; type: cell-based
Experimental: Brain slices were prepared as in Example 5.
Slices were placed in a dark, high humidity chamber filled with aCSF bubbling with 95% O2e5% CO2. Once there, the dye solution (4% 0.2 mM styryl dye pyridinium 4-[2-[6-(dibutylamino)-2-aphthalenyl]-ethenyl]-1-(3-sulfopropyl)hydroxide (Di-4-ANEPPS, Invitrogen, Paisley, UK) (Tominaga et al., 2000) in aCSF 48%, fetal bovine serum 48%, DMSO 3.5% and cremophore EL 0.4%) was applied to the slices for 20-25 min before being transferred to an aCSF bubbler pot (room temperature, 22 C+/−1.5 C) for 1 h to wash off excess dye and recover.
When starting VSD recordings, slices were placed in the recording bath on a small piece of filter paper to keep slice alive and was weighed down appropriately using a home-made plastic grid placed atop the slice. The perfusing bath solution was heated to 30+/−1 C by a stage heater. A concentric bipolar stimulating electrode (FHC, Maine, US) was placed in the ventral diagonal band of the basal forebrain with stimulation being set at 30 V. For acquiring of VSD data, 16-bit images were recorded with 1 ms resolution with a digital camera (Brain Vision MiCAM Ultima R3-V20 Master) with Ultima 2004/08 imaging software (Brain Vision) coupled to Spike 2 V6.0 (CED Ltd, Cambridge, UK) which was used to trigger stimulations with respect to appropriate ISI. […]

[7] = human blood diluted with PBS, 10 μg/ml, up to 60 min

| SMILES | stability in blood [1, 7] | degradants detected ([1]; human blood diluted with PBS, UHPLC-TOF MS) | protection against T30-induced calcium influx (PC12 cells [2]) | blocking of T30-induced deviations from baseline (VSDI) ([3]; 4 μM co-perfused with T30 (2 uM)) | change in magnitude (summed fluorescence) of evoked responses, compound alone ([3]; 4 μM in perfusate, no T30) | protection against T30-induced AChE activity (PC12 cells [4]) | stability in blood ([5]; 10 μg/ml, up to 60 min) | degradants detected [5] | turnover ([1]; 5-fold diluted human blood, 10 μg/ml, up to 60 min) [%] | turnover ([5]; 5-fold diluted rat blood, 10 μg/ml, up to 60 min) [%] | effect on T30-induced inhibition of basal forebrain activity ([6]; 2 μM Tri04 co-perfused with 2 μM T30, n=29) | effect on T30-induced inhibition of basal forebrain activity ([6]; 4 μM Tri04 co-perfused with 2 μM T30, n=20) |
| --- | --- | --- | --- | --- | --- | --- | --- | --- | --- | --- | --- | --- |
| CSCC[C@@H]1NC(=O)[C@H](Cc2ccc(O)cc2)NC(=O)[C@H](CO)NC(=O)[C@H](CO)NC(=O)[C@H](Cc2c[nH]c3ccccc23)NC(=O)[C@H](CCCNC(=N)N)NC(=O)[C@H](Cc2c[nH]cn2)NC(=O)[C@H](Cc2ccccc2)NC(=O)[C@H](CCC(=O)O)NC(=O)[C@H](C)NC(=O)[C@H](CCCCN)NC(=O)[C@H](Cc2c[nH]c3ccccc23)NC(=O)[C@H](Cc2c[nH]cn2)NC(=O)[C@H](C(C)C)NC1=O [NBP14, reference compound] (cyclo(AEFHRWSSYMVHWK)) | good stability | no degradants were detected | protects against these toxic effects | totally block the T30-induced effects | small, non-significant alterations | protects against these toxic effects | good stability | no degradants were detected | – | – | – | – |
| CCN(CC)CCOC(=O)c1ccc(N)cc1 [Procaine, reference compound] | – | – | – | – | – | – | – | – | 100 | 60 | – | – |
| CC(=O)N[C@@H](Cc1ccc(C(=O)c2ccccc2)cc1)C(=O)N[C@@H](CCCCNC(=N)N)C(=O)N[C@@H](Cc1ccc(N)cc1)C(N)=O [Tri04, 4-((S)-2-((S)-2-((S)-2-acetamido-3-(4-benzoylphenyl)propanamido)-6-((amino(iminio)methyl)amino)hexanamido)-3-amino-3-oxopropyl)benzenaminium] (Ac-[Bpa]-[hArg]-[Phe(4-NH2)]-NH2) | better stability than TRI-02 | – | protects the toxic effects of T30 by reducing calcium influx | – | – | – | better stability than TRI-02 | some degradants were still detected | – | – | significant effect on basal forebrain population activity; also recorded: reversal of the inhibitory effect of T30; also recorded: increase in network activity; also recorded: protective role of Tri04 over T30 | totally block the T30-induced effects; also recorded: recapitulates results previously seen with the application of 4 μM NBP14; also recorded: significant effect reversing T30 activity |
